Experimental data taken from patent publication US11285147B2, “Neuroprotective agents for treatment of neurodegenerative diseases” (WAYNE STATE UNIVERSITY, priority 2018, dated 2022).

Key:
Aβ1-42 fibrils = molecular target: T1, Aβ1-42 fibrils (Homo sapiens, UniProt P05067); test: Dissociation of preformed Aβ1-42 aggregates, ThT fluorescence; assay type: biochemical; settings: Aβ1-42 fibrils 10 μM, test compounds 20 μM, 24 h
T1 construct: disaggregation activity of Aβ1-42 peptide
Method: (§1) FIGS. 3A and 3B. Inhibition and dissociation of Aβ1-42 oligomer formation by: a) ThT fluorescence of Aβ1-42 (10 μM) with or without incubation with test compounds (20 μM) for 24 h. The ThT fluorescence of Aβ1-42 at 0 h was taken as 100%. b) Aβ1-42 fibrils (10 μM) were incubated with test compounds (20 μM) for a period of 24 h. The ThT fluorescence of Aβ1-42 aggregates at 0 h was considered as 100%
as §1, with “3B show inhibition” for “3B. Inhibition”
(§2) Similar to the effect of the drugs on α-syn, interaction of compounds with Aβ1-42 peptide clearly indicated a significant effect in inhibiting aggregation in a time dependent manner as indicated by decrease in ThT activity (FIG. 3a). Similarly, test compounds were able to decrease ThT activity of preformed Aβ aggregates in a time dependent manner, reflecting its effect in disrupting structure of aggregates (FIG. 3b). On the other hand, incubation of aggregates itself led to a gradual increase in ThT activity (FIG. 3b).

Aβ1-42 peptide = molecular target: T2, Aβ1-42 peptide (Homo sapiens, UniProt P05067); test: Inhibition of Aβ1-42 aggregation, ThT fluorescence; assay type: biochemical; settings: Aβ1-42 10 μM, test compounds 20 μM, 24 h
T2 construct: disaggregation activity of Aβ1-42 peptide
Method: as §1
as §1, with “3B show inhibition” for “3B. Inhibition”
as §2

αSN (alpha synuclein) = αSN (alpha synuclein) (Homo sapiens, UniProt P37840); test: Inhibition of αSN fibrillization, ThT fluorescence assay; assay type: biochemical
Method: FIGS. 2A-B. (A) Inhibition of aSN fibrillization by D-687 and D-688. The drugs were incubated with aSN over a period of six days and the fibrilization was measured by ThT fluorescence assay. Data Values shown are means±SEMs of three independent experiments. (B) PC12 cells were treated with 10 μM prefabricated aSN aggregates formed in presence of drugs collected at day 0 and day 6. Values shown are means±SEMs of three independent experiments performed in 4-6 replicates. One way ANOVA analysis followed by Tukey's Multiple Comparison post hoc test were performed. (*p<0.01 compared to the control).
We assessed the ability of our compounds, D-687 and D-688, to alter aggregation and cytotoxicity after co-incubating αSN with these drugs for 6 days followed by evaluation of ThT fluorescence activity and cell viability experiment with the PC12 cells. […] In order to maintain identical condition, cellular viability was determined by using samples from various experiments diluted to maintain a final concentration of 10 μM of αSN and 20 μM of drugs.
FIG. 2 provides (A) Inhibition of aSN fibrillization by D-687 and D-688. The drugs were incubated with aSN over a period of six days and the fibrilization was measured by ThT fluorescence assay. Data Values shown are means±SEMs of three independent experiments. […]

D3 receptor = D3 receptor (UniProt P19020); assay type: binding; settings: read-out: Ki (nM) D3, [3H]spiroperidol; cloned D3 in HEK-293 cells; mean ± SEM of 3-6 experiments
D2L receptor = D2L receptor (Rattus norvegicus, UniProt P61169); test: biochemical
D2L receptor, sequence (P61169 whole entry): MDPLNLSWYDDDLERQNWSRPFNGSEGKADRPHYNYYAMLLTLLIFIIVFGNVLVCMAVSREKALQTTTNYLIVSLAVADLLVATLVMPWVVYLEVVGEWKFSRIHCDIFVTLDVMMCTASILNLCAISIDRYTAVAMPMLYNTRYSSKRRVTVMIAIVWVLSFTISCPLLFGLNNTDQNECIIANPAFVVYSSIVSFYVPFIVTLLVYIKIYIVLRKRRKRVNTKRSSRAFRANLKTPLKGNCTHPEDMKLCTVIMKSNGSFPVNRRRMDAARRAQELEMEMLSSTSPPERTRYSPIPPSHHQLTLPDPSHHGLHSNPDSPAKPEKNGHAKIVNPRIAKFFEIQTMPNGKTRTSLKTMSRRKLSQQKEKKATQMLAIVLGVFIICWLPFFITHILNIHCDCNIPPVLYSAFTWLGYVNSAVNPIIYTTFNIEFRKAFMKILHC

T2 sequence (P05067 672-713 limits assumed): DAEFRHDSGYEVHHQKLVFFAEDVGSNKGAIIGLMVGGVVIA
T1 sequence (P05067 672-713 limits assumed): as above

Compound | Disaggregation of preformed Aβ1-42 aggregates (Aβ1-42 fibrils) | Inhibition of aggregation of Aβ1-42 peptide (Aβ1-42 peptide) | Inhibition of aggregation of aSN protein (overall conclusion) (αSN (alpha synuclein)) | Ki (D3 receptor) [nM] | Ki (D2L receptor) [nM]
4′-[4-(2-Diisopropylamino-ethyl)-piperazin-1-yl]-biphenyl-3,4-diol [Compound D-687] | disaggregate | potently inhibited aggregation | potently inhibited aggregation | – | –
CCCN(CCc1cc(O)c(CCN(CCC)[C@H]2CCc3nc(N)sc3C2)cc1O)[C@H]1CCc2nc(N)sc2C1 [12 (D-673), 2,5-bis(2-(((S)-2-amino-4,5,6,7-tetrahydrobenzo[d]thiazol-6-yl)(propyl)amino)-ethyl)benzene-1,4-diol] | – | – | – | 6.87 ± 0.11 | 54.7 ± 3.3
CCN(CC)CCN1CCN(c2ccc(-c3ccc(O)c(O)c3)cc2)CC1 [Compound D690, 4′-[4-(2-Diethylamino-ethyl)-piperazin-1-yl]-biphenyl-3,4-diol] | disaggregate | potently inhibited aggregation | potently inhibited aggregation | – | –
